Assay results: patent US20050118664A1, “Fluorogenic protease substrates” (priority 2002, published 2005)
Where a SMILES comes first, the peptide text is derived from it. The star is where a group is joined. X1 = CN(C)c1ccc2c(-c3cc(NC(=O)C*)ccc3C(=O)[O-])c3ccc(=[N+](C)C)cc-3oc2c1

Columns and labels:
PfSUB-1 [1] = biological target: T1, PfSUB-1 (Plasmodium falciparum, UniProt O61142); details: recombinant PfSUB-1 and authentic parasite-derived enzyme; reference [4]; cited from earlier work
T1 construct: made in house; host or cells: baculovirus/insect cell system
T1 sequence (O61142 220-690): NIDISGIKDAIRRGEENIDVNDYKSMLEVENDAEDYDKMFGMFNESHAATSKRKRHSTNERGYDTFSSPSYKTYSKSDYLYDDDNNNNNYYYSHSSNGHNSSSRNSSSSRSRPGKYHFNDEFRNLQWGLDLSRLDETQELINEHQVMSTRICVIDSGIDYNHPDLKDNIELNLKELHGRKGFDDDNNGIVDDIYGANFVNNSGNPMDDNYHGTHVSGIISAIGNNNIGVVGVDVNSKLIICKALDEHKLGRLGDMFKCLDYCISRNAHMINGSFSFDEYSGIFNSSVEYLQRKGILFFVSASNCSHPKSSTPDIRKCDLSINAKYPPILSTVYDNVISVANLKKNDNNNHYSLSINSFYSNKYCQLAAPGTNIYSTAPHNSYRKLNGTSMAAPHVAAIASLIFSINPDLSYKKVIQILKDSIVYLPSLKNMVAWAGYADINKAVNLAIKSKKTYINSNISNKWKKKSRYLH

PfSUB-1 [2] = biological target: T1, PfSUB-1; assay: Protease digestion of fluorogenic substrate with recombinant PfSUB-1, fluorescence readout; format: biochemical
Protocol: (§1) All dye concentrations were determined from the absorption at 528 nm, with ε 52,000 M^−1cm^−1 [5]. Solutions of pepF1-R and its isomer derived from 5-IATR were prepared at ˜4 μM by dilution from stock DMSO solutions into digestion buffer (20 mM Tris, 50 mM NaCl, 12 mM CaCl2, 0.05% NP-40 (w/v), pH 7.6). It was necessary to include NP-40 detergent (Boehringer Mannheim) in all buffers containing the labelled peptides to avoid non-specific adsorption to glass and plasticware. Portions (4 ml) of each solution were treated with an aliquot of pronase (16 μl of 1 mg ml^−1 in the same buffer) and incubated at room temperature for 30 min. Absorbance spectra of these solutions and of the corresponding labelled peptides prior to pronase treatment were recorded (Beckman DU640 spectrophotometer).
(§2) For protease digestion experiments, pepF1-R was diluted directly from DMSO stocks into digestion buffer (20 mM Tris-HCl pH 7.6, 50 mM NaCl, 12 mM CaCl2, ±0.05% w/v Nonidet P40). The DMSO concentration in digestion experiments was maintained below 1% (v/v).
A sample of pepF1-R digested with PfSUB-1 was subjected to RP-HPLC-fractionation (Vydac 4.6 mm×25 cm C18 reversed-phase column, eluted at 1 ml min^−1 with a 4.5-58.5% (v/v) gradient of acetonitrile in 0.1% TFA). In addition to a small peak at 38.5 min corresponding to residual pepF1-R, two large new fluorescent peaks of equal height were evident, with retention times of 29.6 and 34.0 min.
(§3) For these measurements, the compound was diluted 200-fold from a 230 μM stock solution in DMSO into 20 mM Tris-HCl pH 7.6. Identical spectra were obtained upon dilution into 20 mM acetate buffer, pH 5.0, or 20 mM ethanolamine pH 10.0. All buffer solutions contained 0.05% NP-40 detergent (w/v).

pronase = assay: Protease digestion of fluorogenic substrate with pronase, fluorescence readout; format: biochemical
Protocol: as §1, §2, §3

PfSUB-1 [3] = biological target: T1, PfSUB-1; assay: Multi-well fluorescence assay of PfSUB-1 activity with or without inhibitor; format: biochemical
Protocol: Purified recombinant PfSUB-1 at a range of concentrations in digestion buffer was dispensed into 50 μl aliquots in wells of white 96-well microtitre plates (FluoroNunc, NUNC). […] Plates were sealed and incubated at 37° C. for 18 h before being read on a Perkin Elmer LS-50B Luminescence spectrometer fitted with a LS50B WPR multi-plate reader accessory. Measurements were performed at an excitation wavelength of 552 nm, slit width 4 nm, and an emission wavelength of 580 nm, slit width 2.5 nm. Data collection was managed using Perkin Elmer FL WinLab software.

PfSUB-1 [4] = biological target: T1, PfSUB-1; details: from reference [4]; cited from earlier work

Compound: Ac-LVSADNIDIS—OH: N-acetylated synthetic decapeptide based on the PfSUB-1 autocatalytic cleavage site (Ac-LVSADNIDIS-OH)
- cleavage by PfSUB-1 (in words) (PfSUB-1 [1]): cleaved at the Asp-Asn bond

Compound: CC[C@H](C)[C@H](NC(=O)[C@H](CC(=O)O)NC(=O)[C@@H](NC(=O)[C@H](CC(N)=O)NC(=O)[C@H](CC(=O)O)NC(=O)[C@H](C)NC(=O)[C@H](CO)NC(=O)[C@@H](NC(=O)[C@H](CSCC(=O)Nc1ccc(C(=O)[O-])c(-c2c3ccc(=[N+](C)C)cc-3oc3cc(N(C)C)ccc23)c1)NC(C)=O)C(C)C)[C@@H](C)CC)C(=O)N[C@@H](CSCC(=O)Nc1ccc(C(=O)[O-])c(-c2c3ccc(=[N+](C)C)cc-3oc3cc(N(C)C)ccc23)c1)C(=O)O [pepF1-R] (Ac-C(X1)VSADNIDIC(X1)-OH)
- increase in fluorescence on cleavage (PfSUB-1 [2]; addition of recombinant PfSUB-1, 20 mM Tris-HCl pH 7.6, 0.05% NP-40, ex 552 nm, em 580 nm): greater than 25 fold
- cleavage site of substrate (RP-HPLC / mass spectrometry of products) (PfSUB-1 [2]; digested with PfSUB-1): cleavage at the Asp-Asn bond
- fluorescence change on incubation with protease (in words) (PfSUB-1 [2]; purified recombinant PfSUB-1, digestion buffer): dramatic, time-dependent increase in fluorescence
- increase in fluorescence on cleavage (pronase; addition of pronase, 20 mM Tris-HCl pH 7.6, 0.05% NP-40, ex 552 nm, em 580 nm): greater than 25 fold
- fluorescence change on incubation with protease (in words) (pronase; pronase, digestion buffer): dramatic, time-dependent increase in fluorescence
- solubility: ≤ 50 µM

Compound: O=C(O)c1cc[c]([Hg+])cc1.[OH-] [pHMB, p-hydroxymercuribenzoate]
- fluorescence increase of pepF1-R with inhibitor-pre-treated PfSUB-1 (PfSUB-1 [3]; PfSUB-1 pre-treated with 1 mM inhibitor): no fluorescence increase
- effect of inhibitor on PfSUB-1-dependent fluorescence increase of pepF1-R (PfSUB-1 [3]; multi-well assay, 0.5 μl 100 mM pHMB per 50 μl well, 30 min pre-mix, 37° C. 18 h): virtually completely ablated
- inhibition of PfSUB-1 (in words) (PfSUB-1 [4]): potent inhibitor
